This passage reports residual activity and IC50 results from ChEMBL document CHEMBL1152560, “Substituted 2-arylbenzothiazoles as kinase inhibitors: hit-to-lead optimization” (Bioorg Med Chem, 2009).

Assay [1] addresses Dual specificity tyrosine-phosphorylation-regulated kinase 1B (Homo sapiens) (UniProt Q9Y463). The assay is described as follows: Residual activity of DYRK1B at 1 uM by microplate scintillation counting.
Assay [2] has as its target T1, Eukaryotic translation initiation factor 2-alpha kinase 3 (Homo sapiens) (UniProt Q9NZJ5).
T1 sequence (whole entry): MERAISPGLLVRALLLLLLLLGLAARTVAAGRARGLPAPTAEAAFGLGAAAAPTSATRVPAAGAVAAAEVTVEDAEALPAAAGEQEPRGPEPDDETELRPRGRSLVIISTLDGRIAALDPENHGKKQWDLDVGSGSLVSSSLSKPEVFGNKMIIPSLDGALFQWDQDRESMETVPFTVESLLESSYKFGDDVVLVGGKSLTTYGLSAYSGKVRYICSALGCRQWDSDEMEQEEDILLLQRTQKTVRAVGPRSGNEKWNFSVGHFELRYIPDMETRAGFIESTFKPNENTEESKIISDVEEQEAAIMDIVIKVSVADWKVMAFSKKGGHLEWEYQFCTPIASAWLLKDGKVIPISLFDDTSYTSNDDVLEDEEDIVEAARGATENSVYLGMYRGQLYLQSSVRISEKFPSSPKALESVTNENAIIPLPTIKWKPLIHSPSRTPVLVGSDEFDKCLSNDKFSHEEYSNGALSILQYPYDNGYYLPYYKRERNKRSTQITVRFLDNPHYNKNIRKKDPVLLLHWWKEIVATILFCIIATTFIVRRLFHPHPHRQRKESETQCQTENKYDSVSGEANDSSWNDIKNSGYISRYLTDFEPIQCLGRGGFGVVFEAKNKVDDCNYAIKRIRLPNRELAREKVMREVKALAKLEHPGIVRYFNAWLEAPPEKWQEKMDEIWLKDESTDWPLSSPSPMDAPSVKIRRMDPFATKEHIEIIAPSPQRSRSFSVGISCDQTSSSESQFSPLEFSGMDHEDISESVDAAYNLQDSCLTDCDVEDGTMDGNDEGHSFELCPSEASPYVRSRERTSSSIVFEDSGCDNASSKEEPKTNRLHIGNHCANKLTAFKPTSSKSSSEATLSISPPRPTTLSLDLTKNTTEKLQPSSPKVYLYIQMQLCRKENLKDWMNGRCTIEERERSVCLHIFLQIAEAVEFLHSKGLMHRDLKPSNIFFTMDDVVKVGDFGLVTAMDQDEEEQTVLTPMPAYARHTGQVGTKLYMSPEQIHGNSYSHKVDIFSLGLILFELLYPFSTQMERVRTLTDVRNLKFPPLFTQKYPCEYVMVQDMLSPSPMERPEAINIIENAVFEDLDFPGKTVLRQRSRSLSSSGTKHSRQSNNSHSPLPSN
Description: Residual activity of EIF2AK3 at 1 uM by microplate scintillation counting.

Assay [3] deals with Mitogen-activated protein kinase 8 (Homo sapiens) (UniProt P45983). Description: Residual activity of JNK1 at 0.1 uM by microplate scintillation counting.
The target of assay [4] is Ribosomal protein S6 kinase beta-2 (Homo sapiens) (UniProt Q9UBS0). The assay is described as follows: Residual activity of S6Kbeta at 1 uM by microplate scintillation counting.
Assay [5] deals with Serine/threonine-protein kinase PLK2 (Homo sapiens) (UniProt Q9NYY3). Description: Residual activity of SNK at 1 uM by microplate scintillation counting.
The target of assay [6] is Receptor-type tyrosine-protein kinase FLT3 (Homo sapiens) (UniProt P36888). The assay is described as follows: Residual activity of wild type FLT3 at 10 uM by microplate scintillation counting.
Assay [7] deals with Activin receptor type-1-like (Homo sapiens) (UniProt P37023). Description: Residual activity of ACV-RL1 at 10 uM by microplate scintillation counting.
Assay [8] concerns the target Tyrosine-protein kinase Fyn (Homo sapiens) (UniProt P06241). Description: Residual activity of FYN at 10 uM by microplate scintillation counting.
The target of assay [9] is Mitogen-activated protein kinase 8 (Homo sapiens) (UniProt P45983). The assay is described as follows: Residual activity of JNK1 at 10 uM by microplate scintillation counting.
Assay [10] has as its target T2, Discoidin domain-containing receptor 2 (Homo sapiens) (UniProt Q16832).
T2 sequence (whole entry): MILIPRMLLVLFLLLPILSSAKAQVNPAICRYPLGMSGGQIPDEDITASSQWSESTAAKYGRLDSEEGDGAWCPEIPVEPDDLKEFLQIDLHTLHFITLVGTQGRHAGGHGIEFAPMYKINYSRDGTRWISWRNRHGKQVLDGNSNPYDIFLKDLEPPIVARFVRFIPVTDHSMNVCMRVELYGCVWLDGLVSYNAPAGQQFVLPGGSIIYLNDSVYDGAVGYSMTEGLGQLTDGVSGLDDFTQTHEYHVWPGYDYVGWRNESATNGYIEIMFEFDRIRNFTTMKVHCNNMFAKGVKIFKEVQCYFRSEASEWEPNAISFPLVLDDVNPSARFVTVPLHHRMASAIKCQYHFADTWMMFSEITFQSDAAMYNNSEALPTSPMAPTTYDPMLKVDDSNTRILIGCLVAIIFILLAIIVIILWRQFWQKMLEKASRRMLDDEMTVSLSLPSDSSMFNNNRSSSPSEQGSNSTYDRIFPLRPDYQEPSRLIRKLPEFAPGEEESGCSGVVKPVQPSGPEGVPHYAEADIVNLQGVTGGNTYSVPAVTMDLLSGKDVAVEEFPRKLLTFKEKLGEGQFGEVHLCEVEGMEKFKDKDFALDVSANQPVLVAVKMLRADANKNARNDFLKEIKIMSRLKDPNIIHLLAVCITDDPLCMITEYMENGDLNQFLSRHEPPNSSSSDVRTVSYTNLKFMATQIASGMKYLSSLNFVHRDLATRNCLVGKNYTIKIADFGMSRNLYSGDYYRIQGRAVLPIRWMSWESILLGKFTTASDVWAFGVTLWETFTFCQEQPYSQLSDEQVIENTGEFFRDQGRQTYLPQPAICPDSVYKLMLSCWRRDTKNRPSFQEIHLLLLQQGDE
The assay is described as follows: Residual activity of DDR2 at 0.1 uM by microplate scintillation counting.

Assay [11] concerns the target Cyclin-dependent kinase 5/CDK5 activator 1 (Homo sapiens) (UniProt Q00535+Q15078). Description: Residual activity of CDK5/p25NCK at 0.1 uM by microplate scintillation counting. Type of assay: protein-complex assay.
In assay [12] the target is Casein kinase II subunit alpha (Homo sapiens) (UniProt P68400). Description: Residual activity of CK2alpha1 at 0.1 uM by microplate scintillation counting.
The target of assay [13] is Protein kinase C gamma type (Homo sapiens) (UniProt P05129). Description: Residual activity of PKCgamma at 0.1 uM by microplate scintillation counting.
Assay [14] in a line: Residual activity of S6K at 10 uM by microplate scintillation counting.
Assay [15] addresses Ribosomal protein S6 kinase beta-2 (Homo sapiens) (UniProt Q9UBS0). The assay is described as follows: Residual activity of S6Kbeta at 10 uM by microplate scintillation counting.
The target in assay [16] is Vascular endothelial growth factor receptor 2 (Homo sapiens, UniProt P35968). The assay is described as follows: Inhibition of VEGFR2 by microplate scintillation counting.
Assay [17] has as its target 3-phosphoinositide-dependent protein kinase 1 (Homo sapiens) (UniProt O15530). Description: Residual activity of PDK1 at 10 uM by microplate scintillation counting.

Ribosomal protein S6 kinase beta-2 (Homo sapiens), sequence (Q9UBS0 whole entry): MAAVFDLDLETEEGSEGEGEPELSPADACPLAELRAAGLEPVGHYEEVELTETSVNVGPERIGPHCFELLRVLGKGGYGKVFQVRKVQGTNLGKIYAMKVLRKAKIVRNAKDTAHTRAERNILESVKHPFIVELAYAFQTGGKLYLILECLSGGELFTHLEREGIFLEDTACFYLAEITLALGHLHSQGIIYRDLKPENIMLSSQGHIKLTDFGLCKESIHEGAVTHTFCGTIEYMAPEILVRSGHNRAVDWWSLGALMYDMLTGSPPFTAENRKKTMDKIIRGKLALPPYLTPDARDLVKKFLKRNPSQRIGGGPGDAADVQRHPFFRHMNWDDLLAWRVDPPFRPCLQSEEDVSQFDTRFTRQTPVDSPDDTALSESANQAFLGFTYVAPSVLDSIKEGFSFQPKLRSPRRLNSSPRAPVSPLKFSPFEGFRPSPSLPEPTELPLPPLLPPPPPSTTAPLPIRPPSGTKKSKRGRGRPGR
Casein kinase II subunit alpha (Homo sapiens), sequence (P68400 whole entry, looked up): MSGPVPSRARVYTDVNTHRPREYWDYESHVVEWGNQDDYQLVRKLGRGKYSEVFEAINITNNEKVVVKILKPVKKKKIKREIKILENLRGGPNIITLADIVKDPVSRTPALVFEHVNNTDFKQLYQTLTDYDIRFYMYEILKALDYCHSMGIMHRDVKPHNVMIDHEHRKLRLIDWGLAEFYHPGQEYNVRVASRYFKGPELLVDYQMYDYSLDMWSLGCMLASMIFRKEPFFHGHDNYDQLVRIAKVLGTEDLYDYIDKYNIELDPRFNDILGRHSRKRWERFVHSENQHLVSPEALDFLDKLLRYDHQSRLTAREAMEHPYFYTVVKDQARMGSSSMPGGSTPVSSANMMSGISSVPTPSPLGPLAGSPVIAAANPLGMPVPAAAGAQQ
Cyclin-dependent kinase 5/CDK5 activator 1 (Homo sapiens), sequence (Q00535 whole entry): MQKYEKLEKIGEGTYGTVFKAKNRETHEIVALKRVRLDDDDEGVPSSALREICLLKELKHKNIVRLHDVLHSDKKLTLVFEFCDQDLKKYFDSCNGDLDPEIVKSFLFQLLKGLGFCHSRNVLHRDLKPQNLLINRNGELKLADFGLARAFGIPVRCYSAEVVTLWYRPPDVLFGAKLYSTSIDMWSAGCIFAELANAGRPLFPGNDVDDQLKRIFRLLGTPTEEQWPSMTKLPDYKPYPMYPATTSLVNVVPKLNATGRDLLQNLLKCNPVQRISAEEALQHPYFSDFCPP
Cyclin-dependent kinase 5/CDK5 activator 1 (Homo sapiens), sequence (Q15078 99-307 partner limits assumed): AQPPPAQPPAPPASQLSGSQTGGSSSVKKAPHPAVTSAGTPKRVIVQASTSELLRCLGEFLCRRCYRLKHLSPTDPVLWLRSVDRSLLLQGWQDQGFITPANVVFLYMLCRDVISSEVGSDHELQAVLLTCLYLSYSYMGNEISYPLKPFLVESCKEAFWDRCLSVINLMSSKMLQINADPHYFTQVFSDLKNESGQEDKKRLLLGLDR
3-phosphoinositide-dependent protein kinase 1 (Homo sapiens), sequence (O15530 whole entry, looked up): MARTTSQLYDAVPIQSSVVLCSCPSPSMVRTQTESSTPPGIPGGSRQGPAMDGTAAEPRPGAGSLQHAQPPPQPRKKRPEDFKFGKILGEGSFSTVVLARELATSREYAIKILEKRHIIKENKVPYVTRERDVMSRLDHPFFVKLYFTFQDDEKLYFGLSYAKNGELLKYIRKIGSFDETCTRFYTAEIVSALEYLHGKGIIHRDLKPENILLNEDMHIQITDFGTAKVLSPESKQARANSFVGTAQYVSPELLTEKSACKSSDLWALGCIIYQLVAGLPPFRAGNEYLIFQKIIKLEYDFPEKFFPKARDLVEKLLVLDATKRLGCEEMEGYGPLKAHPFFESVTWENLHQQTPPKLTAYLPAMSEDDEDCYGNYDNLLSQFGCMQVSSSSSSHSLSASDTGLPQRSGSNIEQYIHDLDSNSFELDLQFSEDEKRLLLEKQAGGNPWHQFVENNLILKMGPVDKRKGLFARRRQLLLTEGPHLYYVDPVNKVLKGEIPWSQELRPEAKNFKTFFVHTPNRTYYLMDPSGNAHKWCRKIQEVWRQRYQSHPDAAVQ
Tyrosine-protein kinase Fyn (Homo sapiens), sequence (P06241 2-537 limits assumed): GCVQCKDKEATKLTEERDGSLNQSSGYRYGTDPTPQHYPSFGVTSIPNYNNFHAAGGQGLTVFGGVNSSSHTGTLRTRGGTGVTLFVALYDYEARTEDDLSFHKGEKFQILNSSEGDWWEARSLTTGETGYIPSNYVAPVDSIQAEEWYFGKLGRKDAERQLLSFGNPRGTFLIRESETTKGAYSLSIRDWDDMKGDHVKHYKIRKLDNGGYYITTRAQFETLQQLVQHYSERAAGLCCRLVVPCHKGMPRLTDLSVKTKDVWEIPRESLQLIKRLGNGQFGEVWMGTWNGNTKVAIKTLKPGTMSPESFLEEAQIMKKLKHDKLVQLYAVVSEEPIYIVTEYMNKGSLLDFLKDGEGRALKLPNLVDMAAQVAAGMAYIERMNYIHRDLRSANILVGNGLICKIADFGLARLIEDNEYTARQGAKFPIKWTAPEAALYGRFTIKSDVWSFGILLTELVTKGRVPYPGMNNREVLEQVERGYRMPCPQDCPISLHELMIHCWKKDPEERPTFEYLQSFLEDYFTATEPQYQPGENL
Vascular endothelial growth factor receptor 2, sequence (P35968 whole entry): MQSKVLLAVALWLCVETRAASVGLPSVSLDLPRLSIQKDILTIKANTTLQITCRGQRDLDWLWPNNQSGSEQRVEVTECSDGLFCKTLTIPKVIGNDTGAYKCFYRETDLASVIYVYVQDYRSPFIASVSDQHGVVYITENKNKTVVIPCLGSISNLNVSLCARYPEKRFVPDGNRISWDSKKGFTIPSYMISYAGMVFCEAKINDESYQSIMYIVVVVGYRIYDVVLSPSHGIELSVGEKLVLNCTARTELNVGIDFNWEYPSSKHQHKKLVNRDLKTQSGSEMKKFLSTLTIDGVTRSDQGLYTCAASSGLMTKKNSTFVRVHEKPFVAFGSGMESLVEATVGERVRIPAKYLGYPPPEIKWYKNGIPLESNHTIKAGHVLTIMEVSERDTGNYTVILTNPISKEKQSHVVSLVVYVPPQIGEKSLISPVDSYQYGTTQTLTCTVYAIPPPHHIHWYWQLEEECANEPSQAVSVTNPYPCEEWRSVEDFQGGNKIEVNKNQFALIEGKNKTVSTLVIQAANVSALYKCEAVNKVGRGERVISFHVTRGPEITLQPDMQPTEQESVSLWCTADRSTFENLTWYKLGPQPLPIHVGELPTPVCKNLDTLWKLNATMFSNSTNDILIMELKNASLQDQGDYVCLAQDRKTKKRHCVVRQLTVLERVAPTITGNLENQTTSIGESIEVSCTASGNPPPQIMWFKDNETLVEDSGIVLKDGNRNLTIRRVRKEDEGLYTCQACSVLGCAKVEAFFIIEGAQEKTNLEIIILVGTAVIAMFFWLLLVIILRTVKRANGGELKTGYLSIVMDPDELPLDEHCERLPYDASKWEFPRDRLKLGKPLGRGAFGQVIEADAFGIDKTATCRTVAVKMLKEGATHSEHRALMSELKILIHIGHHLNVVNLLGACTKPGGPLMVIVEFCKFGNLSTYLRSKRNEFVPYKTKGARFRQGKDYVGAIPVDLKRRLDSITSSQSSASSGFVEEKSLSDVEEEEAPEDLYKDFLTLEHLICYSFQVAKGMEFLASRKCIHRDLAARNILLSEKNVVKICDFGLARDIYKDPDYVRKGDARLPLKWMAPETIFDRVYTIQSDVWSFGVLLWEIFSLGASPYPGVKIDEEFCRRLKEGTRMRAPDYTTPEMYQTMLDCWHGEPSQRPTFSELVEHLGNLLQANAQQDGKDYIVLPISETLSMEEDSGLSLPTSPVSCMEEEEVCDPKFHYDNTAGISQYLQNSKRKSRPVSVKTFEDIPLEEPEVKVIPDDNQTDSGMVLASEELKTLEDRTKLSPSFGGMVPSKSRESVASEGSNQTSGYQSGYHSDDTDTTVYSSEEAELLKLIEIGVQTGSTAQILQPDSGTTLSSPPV
Receptor-type tyrosine-protein kinase FLT3 (Homo sapiens), sequence (P36888 whole entry): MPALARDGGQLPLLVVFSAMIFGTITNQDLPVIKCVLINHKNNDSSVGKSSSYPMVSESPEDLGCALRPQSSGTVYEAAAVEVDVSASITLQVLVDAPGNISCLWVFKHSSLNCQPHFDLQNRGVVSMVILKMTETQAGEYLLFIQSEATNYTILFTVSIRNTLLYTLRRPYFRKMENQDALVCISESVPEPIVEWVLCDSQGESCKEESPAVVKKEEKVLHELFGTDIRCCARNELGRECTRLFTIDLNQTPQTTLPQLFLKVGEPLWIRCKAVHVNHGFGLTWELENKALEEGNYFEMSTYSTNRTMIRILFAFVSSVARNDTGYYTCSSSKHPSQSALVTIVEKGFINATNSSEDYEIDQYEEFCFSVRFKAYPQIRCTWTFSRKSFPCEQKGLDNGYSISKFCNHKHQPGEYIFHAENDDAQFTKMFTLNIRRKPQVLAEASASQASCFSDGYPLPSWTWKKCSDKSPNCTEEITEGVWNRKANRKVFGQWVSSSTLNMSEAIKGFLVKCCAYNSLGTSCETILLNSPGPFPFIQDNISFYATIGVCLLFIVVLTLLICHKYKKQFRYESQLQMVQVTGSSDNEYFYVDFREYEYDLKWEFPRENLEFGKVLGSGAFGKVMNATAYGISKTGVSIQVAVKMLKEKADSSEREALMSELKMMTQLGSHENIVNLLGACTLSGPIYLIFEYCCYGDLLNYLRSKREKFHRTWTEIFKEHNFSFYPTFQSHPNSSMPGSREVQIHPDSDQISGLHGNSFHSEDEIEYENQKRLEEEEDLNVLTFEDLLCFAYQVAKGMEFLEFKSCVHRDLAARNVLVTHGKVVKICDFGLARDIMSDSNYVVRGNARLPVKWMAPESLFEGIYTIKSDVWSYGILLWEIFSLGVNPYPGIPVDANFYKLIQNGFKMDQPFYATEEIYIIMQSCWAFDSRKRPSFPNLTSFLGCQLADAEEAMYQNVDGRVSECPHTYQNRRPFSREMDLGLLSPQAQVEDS

Regarding `COc1cc2c(Oc3ccc(-c4nc5ccccc5s4)cc3F)ncnc2cc1OCCCN1CCN(C)CC1`, the residual activity came to 95% in assay [1]; 90% in assay [2]; 101% in assay [3]; 41% in assay [4]; 94% in assay [5]; 6% in assay [6]. The residual activity in assay [7] stood at 91%; in assay [8], 10%; in assay [9], 264%; in assay [10], 93%; in [11], 87%; in assay [12], 87%. Also, the residual activity came out at 101% in assay [13], 36% in assay [14], 77% in [15] and 61% in [17]. For the same compound, in [16], the IC50 was 420 nM.
Regarding `COc1cc2c(Oc3ccc(-c4nc5ccccc5s4)cc3)ncnc2cc1OCCCN1CCN(C)CC1`, the residual activity in assay [1] is 105%; in [2] it was 100%; in assay [3], 98%; in assay [4] it was 56%; in assay [5], 86%; in [6], 13%. Further, the residual activity in assay [7] was 84%; in assay [8], 56%; in assay [9], 272%; in assay [10], 88%; in assay [11], 78%; in assay [12], 95%. Also, the residual activity in assay [13] was 120%; in [14], 29%; in [15], 75%; in assay [17] it was 67%. The compound further came in with an IC50 in assay [16] of 147 nM.
For the compound `COc1cc2c(Oc3ccc(-c4nc5ccccc5s4)cc3)ncnc2cc1OCCCN1CCCC1`, the residual activity in [1] worked out at 98%; in [2] it was 102%; in [3], 106%; in assay [4], 54%; in [5] it was 86%; in assay [6], 42%. Further, the residual activity came out at 87% in assay [7]; 70% in [8]; 305% in assay [9]; 97% in [10]; 90% in [11]; 132% in assay [12]. For the same compound, the residual activity in [13] came out at 99%; in assay [14], 37%; in [15], 85%; in [17], 66%. Further, in assay [16], the midpoint of inhibition, the IC50, lay at 350 nM.
